Experimental data published in the NIST ThermoML archive (doi:10.1016/j.jct.2013.10.031).
Numbers after ± are expanded uncertainties.

Assay: wn = mass fraction of the nth substance listed
Conditions: Gas, Burnett expansion method

FCC(F)(F)F [1,1,1,2-tetrafluoroethane] + CCC
Conditions	mass density [kg/m3]
291.04 K, 382.5 kPa, w2 = 0.6	9.6512 ± 0.55
291.04 K, 497.9 kPa, w2 = 0.6	12.8332 ± 0.57
291.04 K, 818.1 kPa, w2 = 0.6	22.6914 ± 0.67
291.06 K, 178.7 kPa, w2 = 0.65	4.1993 ± 0.49
291.06 K, 235.4 kPa, w2 = 0.65	5.5839 ± 0.5
291.06 K, 309.1 kPa, w2 = 0.65	7.425 ± 0.51
291.06 K, 404.2 kPa, w2 = 0.65	9.8733 ± 0.53
291.06 K, 525 kPa, w2 = 0.65	13.1287 ± 0.57
291.06 K, 642.6 kPa, w2 = 0.6	17.0639 ± 0.63
291.08 K, 675.9 kPa, w2 = 0.65	17.4564 ± 0.6
291.99 K, 927 kPa, w2 = 0.5	28.4165 ± 0.77
292 K, 732.8 kPa, w2 = 0.5	21.3324 ± 0.72
292.01 K, 193.1 kPa, w2 = 0.5	5.0866 ± 0.55
292.01 K, 254.3 kPa, w2 = 0.5	6.7756 ± 0.56
292.01 K, 334.3 kPa, w2 = 0.5	9.02529 ± 0.58
292.01 K, 437.9 kPa, w2 = 0.5	12.0223 ± 0.6
292.01 K, 569.6 kPa, w2 = 0.5	16.0141 ± 0.64
292.03 K, 202.8 kPa, w2 = 0.4	5.83306 ± 0.61
292.03 K, 587.9 kPa, w2 = 0.4	18.3639 ± 0.73
292.03 K, 753.1 kPa, w2 = 0.4	24.4617 ± 0.81
292.03 K, 950.3 kPa, w2 = 0.4	32.5844 ± 0.86
292.04 K, 266.5 kPa, w2 = 0.4	7.76977 ± 0.62
292.04 K, 348.8 kPa, w2 = 0.4	10.3497 ± 0.65
292.04 K, 454.4 kPa, w2 = 0.4	13.7862 ± 0.68
292.1 K, 669.6 kPa, w2 = 0.45	20.2125 ± 0.72
292.1 K, 852.9 kPa, w2 = 0.45	26.9241 ± 0.77
292.11 K, 399.4 kPa, w2 = 0.45	11.3911 ± 0.63
292.11 K, 519.4 kPa, w2 = 0.45	15.1737 ± 0.67
292.12 K, 176.3 kPa, w2 = 0.45	4.81956 ± 0.57
292.12 K, 232.3 kPa, w2 = 0.45	6.41979 ± 0.58
292.12 K, 305.2 kPa, w2 = 0.45	8.55159 ± 0.6
295.06 K, 496 kPa, w2 = 0.6	12.529 ± 0.56
295.06 K, 537 kPa, w2 = 0.55	14.2738 ± 0.6
295.06 K, 692.2 kPa, w2 = 0.55	18.98 ± 0.66
295.06 K, 881.4 kPa, w2 = 0.55	25.2378 ± 0.7
295.07 K, 315.8 kPa, w2 = 0.55	8.0723 ± 0.54
295.07 K, 641.4 kPa, w2 = 0.6	16.6596 ± 0.61
295.07 K, 820 kPa, w2 = 0.6	22.1527 ± 0.65
295.08 K, 167 kPa, w2 = 0.6	4.0072 ± 0.49
295.08 K, 220.6 kPa, w2 = 0.6	5.3286 ± 0.5
295.08 K, 240.3 kPa, w2 = 0.55	6.0706 ± 0.53
295.08 K, 380.5 kPa, w2 = 0.6	9.4217 ± 0.53
295.08 K, 413.2 kPa, w2 = 0.55	10.7336 ± 0.57
295.08 K, 929.7 kPa, w2 = 0.65	25.1362 ± 0.67
295.09 K, 290.3 kPa, w2 = 0.6	7.0853 ± 0.51
295.09 K, 571.2 kPa, w2 = 0.65	14.2158 ± 0.57
295.09 K, 733.9 kPa, w2 = 0.65	18.9032 ± 0.63
295.1 K, 440.4 kPa, w2 = 0.65	10.6904 ± 0.54
295.11 K, 337.1 kPa, w2 = 0.65	8.0394 ± 0.51
295.12 K, 195 kPa, w2 = 0.65	4.5466 ± 0.49
295.12 K, 256.9 kPa, w2 = 0.65	6.0457 ± 0.49
296.03 K, 914.3 kPa, w2 = 0.45	28.6491 ± 0.77
296.04 K, 429.5 kPa, w2 = 0.45	12.1212 ± 0.62
296.04 K, 558.2 kPa, w2 = 0.45	16.146 ± 0.66
296.04 K, 718.9 kPa, w2 = 0.45	21.5073 ± 0.73
296.05 K, 189.8 kPa, w2 = 0.45	5.12847 ± 0.56
296.05 K, 250.1 kPa, w2 = 0.45	6.83136 ± 0.58
296.05 K, 328.4 kPa, w2 = 0.45	9.09958 ± 0.59
296.06 K, 874.4 kPa, w2 = 0.5	25.9625 ± 0.72
296.07 K, 179.9 kPa, w2 = 0.5	4.64758 ± 0.54
296.07 K, 236.8 kPa, w2 = 0.5	6.1908 ± 0.55
296.07 K, 407 kPa, w2 = 0.5	10.9846 ± 0.58
296.07 K, 529.9 kPa, w2 = 0.5	14.6321 ± 0.62
296.07 K, 684.5 kPa, w2 = 0.5	19.4905 ± 0.68
296.15 K, 854.3 kPa, w2 = 0.4	27.6875 ± 0.83
296.15 K, 1071.2 kPa, w2 = 0.4	36.8808 ± 0.9
296.16 K, 518.5 kPa, w2 = 0.4	15.6041 ± 0.68
296.16 K, 669.4 kPa, w2 = 0.4	20.7854 ± 0.74
296.17 K, 231.5 kPa, w2 = 0.4	6.60203 ± 0.6
296.17 K, 304.4 kPa, w2 = 0.4	8.79413 ± 0.62
296.17 K, 398.4 kPa, w2 = 0.4	11.7141 ± 0.64
297.08 K, 311 kPa, w2 = 0.5	8.24631 ± 0.56
299.03 K, 1039.9 kPa, w2 = 0.55	30.269 ± 0.74
299.04 K, 190.4 kPa, w2 = 0.6	4.5212 ± 0.49
299.04 K, 220.4 kPa, w2 = 0.55	5.4755 ± 0.52
299.04 K, 251 kPa, w2 = 0.6	6.0118 ± 0.5
299.04 K, 290.2 kPa, w2 = 0.55	7.2808 ± 0.53
299.04 K, 330.1 kPa, w2 = 0.6	7.994 ± 0.51
299.04 K, 380.6 kPa, w2 = 0.55	9.6815 ± 0.55
299.04 K, 432.1 kPa, w2 = 0.6	10.6297 ± 0.54
299.04 K, 496.4 kPa, w2 = 0.55	12.8736 ± 0.58
299.04 K, 561.9 kPa, w2 = 0.6	14.1346 ± 0.57
299.04 K, 724.4 kPa, w2 = 0.6	18.7949 ± 0.62
299.04 K, 824.2 kPa, w2 = 0.55	22.7626 ± 0.69
299.05 K, 180.8 kPa, w2 = 0.65	4.1345 ± 0.47
299.05 K, 238.4 kPa, w2 = 0.65	5.4977 ± 0.48
299.05 K, 313.5 kPa, w2 = 0.65	7.3105 ± 0.49
299.05 K, 410.5 kPa, w2 = 0.65	9.7208 ± 0.52
299.05 K, 534.3 kPa, w2 = 0.65	12.9262 ± 0.55
299.05 K, 642.9 kPa, w2 = 0.55	17.1183 ± 0.62
299.06 K, 689.6 kPa, w2 = 0.65	17.1876 ± 0.59
299.06 K, 880.4 kPa, w2 = 0.65	22.8543 ± 0.62
299.06 K, 922.6 kPa, w2 = 0.6	24.9906 ± 0.66
299.92 K, 198.1 kPa, w2 = 0.5	5.06523 ± 0.54
299.92 K, 261.1 kPa, w2 = 0.5	6.74709 ± 0.54
299.92 K, 343.5 kPa, w2 = 0.5	8.9873 ± 0.56
299.92 K, 449.9 kPa, w2 = 0.5	11.9714 ± 0.58
299.92 K, 585.2 kPa, w2 = 0.5	15.9465 ± 0.62
299.92 K, 754.7 kPa, w2 = 0.5	21.2412 ± 0.68
299.93 K, 961.3 kPa, w2 = 0.5	28.294 ± 0.76
300.04 K, 162.1 kPa, w2 = 0.4	4.47962 ± 0.58
300.04 K, 213.8 kPa, w2 = 0.4	5.96699 ± 0.58
300.04 K, 369.1 kPa, w2 = 0.4	10.5874 ± 0.62
300.04 K, 481.6 kPa, w2 = 0.4	14.1031 ± 0.65
300.04 K, 624.3 kPa, w2 = 0.4	18.786 ± 0.7
300.04 K, 801.2 kPa, w2 = 0.4	25.0237 ± 0.77
300.04 K, 1014.7 kPa, w2 = 0.4	33.3323 ± 0.82
300.05 K, 281.4 kPa, w2 = 0.4	7.94819 ± 0.6
300.28 K, 1155.2 kPa, w2 = 0.45	37.6831 ± 0.87
300.3 K, 250.1 kPa, w2 = 0.45	6.74559 ± 0.58
300.3 K, 328.7 kPa, w2 = 0.45	8.98533 ± 0.58
300.3 K, 430.2 kPa, w2 = 0.45	11.9689 ± 0.61
300.3 K, 560 kPa, w2 = 0.45	15.9432 ± 0.65
300.3 K, 722.6 kPa, w2 = 0.45	21.2369 ± 0.7
300.3 K, 921.7 kPa, w2 = 0.45	28.2885 ± 0.8
303 K, 206 kPa, w2 = 0.65	4.6675 ± 0.47
303 K, 271.6 kPa, w2 = 0.65	6.2064 ± 0.48
303 K, 356.7 kPa, w2 = 0.65	8.2528 ± 0.49
303 K, 466.3 kPa, w2 = 0.65	10.974 ± 0.52
303 K, 605.7 kPa, w2 = 0.65	14.5921 ± 0.55
303.01 K, 228 kPa, w2 = 0.55	5.5856 ± 0.51
303.01 K, 513.7 kPa, w2 = 0.55	13.1325 ± 0.56
303.01 K, 665.4 kPa, w2 = 0.55	17.4628 ± 0.61
303.01 K, 780 kPa, w2 = 0.65	19.4028 ± 0.6
303.01 K, 853.2 kPa, w2 = 0.55	23.2201 ± 0.68
303.02 K, 300.2 kPa, w2 = 0.55	7.4272 ± 0.52
303.02 K, 393.7 kPa, w2 = 0.55	9.876 ± 0.54
303.02 K, 1078.8 kPa, w2 = 0.55	30.8763 ± 0.69
303.03 K, 991 kPa, w2 = 0.65	25.7988 ± 0.64
303.1 K, 231.6 kPa, w2 = 0.6	5.4683 ± 0.49
303.1 K, 304.9 kPa, w2 = 0.6	7.2713 ± 0.5
303.1 K, 399.8 kPa, w2 = 0.6	9.6687 ± 0.52
303.1 K, 521.7 kPa, w2 = 0.6	12.8566 ± 0.55
303.1 K, 675.5 kPa, w2 = 0.6	17.0956 ± 0.59
303.1 K, 865.6 kPa, w2 = 0.6	22.7325 ± 0.66
303.11 K, 1092.1 kPa, w2 = 0.6	30.2268 ± 0.71
304.1 K, 860.4 kPa, w2 = 0.4	26.6525 ± 0.78
304.1 K, 1087.7 kPa, w2 = 0.4	35.5024 ± 0.83
304.11 K, 174.8 kPa, w2 = 0.4	4.77108 ± 0.57
304.11 K, 397.4 kPa, w2 = 0.4	11.2764 ± 0.62
304.11 K, 518.4 kPa, w2 = 0.4	15.0206 ± 0.65
304.11 K, 671.1 kPa, w2 = 0.4	20.0084 ± 0.7
304.12 K, 230.5 kPa, w2 = 0.4	6.35521 ± 0.58
304.12 K, 303.2 kPa, w2 = 0.4	8.46542 ± 0.59
304.18 K, 860.4 kPa, w2 = 0.5	24.4745 ± 0.71
304.19 K, 302.4 kPa, w2 = 0.5	7.77376 ± 0.55
304.19 K, 396.5 kPa, w2 = 0.5	10.3551 ± 0.57
304.19 K, 517.4 kPa, w2 = 0.5	13.7935 ± 0.6
304.19 K, 670.5 kPa, w2 = 0.5	18.3734 ± 0.64
304.19 K, 1088.7 kPa, w2 = 0.5	32.6005 ± 0.78
304.23 K, 1142.8 kPa, w2 = 0.45	36.7316 ± 0.82
304.24 K, 907.2 kPa, w2 = 0.45	27.5748 ± 0.78
304.25 K, 248 kPa, w2 = 0.45	6.57513 ± 0.57
